From paper PMC10487708, “Chlorin E6-Curcumin-Mediated Photodynamic Therapy Promotes an Anti-Photoaging Effect in UVB-Irradiated Fibroblasts” (International Journal of Molecular Sciences, 2023)
Read-outs that look alike come from different tables or passages of the source.

Key:
[1] = test system: Hs68 cells; test: MTT cell viability of Hs68 cells with or without LED light; format: cell-based, human; settings: for IC50: Homo sapiens, light or radiation study, Hs68 cells; for cytotoxicity for Hs68 cells: dark, up to 1000 nM
Procedure: Data were represented as mean ± SD from at least three independent experiments and analyzed by one-way ANOVA with Tukey’s post hoc test, * p < 0.01, compared with vehicle-treated control.
(§1) Hs68 and BALB/c 3T3 cell viability was measured using a 3-[4,5-dimethylthylthiazol-2-yl]-2,5 diphenyl tetrazolium bromide (MTT) assay. The cells were cultured in 24-well plates at a density of 3 × 10^4 cells per well or BALB/c 3T3 cells at a density of 1 × 10^4 cells per well. […] The Hs68 cells were then exposed to LED light (660 nm; 89 W/m^2; 20 J/cm^2) for 37 min 27 s and incubated for 3 h. […] The cells were washed and treated with MTT, after which the plates were incubated at 37 °C in the dark for 2 h. After the formation of formazan, 100 µL of DMSO was added, and the absorbance was measured at 570 nm using a microtiter plate reader (Thermo-scientific, Skanlt software 5.0, Waltham, MA, USA)

[2] = MTT cytotoxicity of Ce6-curcumin derivative PDT in BALB/c 3T3 cells; format: cell-based, mouse; settings: mouse, BALB/c 3T3 cells; 3 h treatment, 660 nm 20 J/cm^2, MTT after 24 h, tested 200 to 6400 nM; read-out: IC50 cytotoxicity against BALB/c 3T3 cells
Procedure: MTT assay was used to evaluate viability after 24 h. IC50 values were calculated using GraphPad Prism 5 software.
as §1

[3] = test system: UVB-irradiated BALB/c 3T3 cells; test: MTT cell viability of UVB-irradiated BALB/c 3T3 cells; format: cell-based, mouse; settings: UVB 200 mJ/cm^2, 0.2–8 μM, 24 h
Procedure: To investigate the proper dose of UVB irradiation, BALB/c 3T3 cells were exposed to different doses of UVB (50, 100, 200, 800, 1600 mJ/cm^2) for 24 h. […] Therefore, the dose of 200 mJ/cm^2 was used in the subsequent in vitro studies to evaluate the protective effect of Ce6-PDT. The effect of Ce6-curcumin derivatives on BALB/c 3T3 cell viability was evaluated with the MTT assay.
Figure 6 The effect of Ce6-curcumin derivatives on UVB-irradiated BALB/c 3T3 cells. (A) Cell viability of BALB/c 3T3 cells irradiated with different doses of UVB (50, 100, 200, 800, 1600 mJ/cm^2) for 24 h. […] Data were represented as mean ± SD from at least three independent experiments and analyzed by one-way ANOVA with Tukey’s post hoc test, * p < 0.01, compared with UVB-treated groups.
BALB/c 3T3 cells were seeded at a density of 1 × 10^4 cells/well in 96-well plates for 24 h. The culture medium was replaced with phosphate-buffered saline (PBS), and the cells were pretreated with UVB (200 mJ/cm^2) before being incubated for 24 h incubation in an FBS-free medium containing different concentrations of Ce6-curcumin derivatives. Cell viability was measured by MTT assay.

[4] = ABTS radical scavenging activity; format: biochemical
Procedure: […] in 2.5 mM potassium persulfate for more than 16 h to develop 7 mM 2,2′-azinobis-(3-ethylbenzothiazoline-6-sulfonic acid diammonium salt) (ABTS), and ethanol was diluted to obtain an absorbance of 0.3 at 620 nm. Each composite sample was diluted by concentration, and 100 μL of the sample was put into each well along with 50 μL each of ABTS reagent and solvent; reacted at room temperature for 10 min, and absorbance was measured at 620 nm. ABTS activity inhibition (%) = 100 − [test group-blank]/(control group-blank) × 100]

[5] = test system: MMP-2; test: Gelatin zymography of MMP-2 in UVB-exposed Hs68 cells; format: cell-based, human; settings: UVB 200 mJ/cm^2, LED 20 J/cm^2, Hs68
From the text: Since MMP-2 is a […] that plays an important role in photoaging, we examined the effect of Ce6-curcumin derivatives and LED treatment on the enzyme activities of UV-induced MMP-2 by gelatin zymography. On gelatin zymography, UVB irradiation led to the activation of MMP-2 in Hs68 cells, and this increase was inhibited by Ce6-curcumin derivatives along with LED treatments. On increasing the dose of the Ce6-curcumin derivatives, the MMP-2 was decreased (Figure 7A–C).
Data are expressed as mean ± SD from at least three independent experiments and were analyzed by one-way ANOVA with Tukey’s post hoc test, * p < 0.01 compared with control. ^# p < 0.05 compared with the UVB and LED-treated groups.
MMP-2 activity in cell culture medium was evaluated by gelatin zymography assay as described. After UVB (200 mJ/cm^2) irradiation, Hs68 cells were cultured for 24 h. Ce6-curcumin derivatives were diluted into a medium containing 1% FBS and cultured for 30 min. After 30 min, the LED was irradiated with 20 J/cm^2, cultured for 3 h, washed with 1× PBS, and 300 μL of FBS-free medium was added and cultured for 44 h. […] The activity of MMPs was measured by quantifying the transparent band by proteolytic activity after staining with Coomassie Brilliant Blue staining solution and further distaining with water, methanol, and acetic acid (50:40:10).

[6] = LED 660 nm 20 J/cm^2, MTT, read-out: Phototoxicity (IC50)
[7] = without LED irradiation, MTT, read-out: Dark Toxicity (IC50)
[8] = LED light, read-out: LED Condition (EC50, μM) ABTS radical scavenging
[9] = dark, read-out: Dark Condition (EC50, μM) ABTS radical scavenging

EC50 [4, 8] [µM]	ABTS EC50 value compared to the standard antioxidant 5-ALA hydrochloride ([4]; dark) [%]	EC50 [4, 9] [µM]	SMILES	IC50 [1, 6] [nM]	IC50 [1, 7] [nM]	cytotoxicity for Hs68 cells [1]	IC50 [2] [nM]	concentration from which cytotoxicity was shown in UVB-irradiated BALB/c 3T3 cells [3] [µM]	UVB-induced MMP-2 expression (gelatin zymography) ([5]; 200 nM)	phototoxicity toward human dermal fibroblasts, Hs68 ([1]; with PDT, up to a dose of 1000 nM)	cell viability of UVB-irradiated BALB/c 3T3 cells [3]	UVB-induced MMP-2 expression (gelatin zymography) ([5]; 100 nM)
22.3 ± 2.62	~74	15.51 ± 0.01	C=Cc1c(C)c2cc3nc(c(CC(=O)OC)c4[nH]c(cc5nc(cc1[nH]2)C(C)=C5CC)c(C)c4C(=O)NCCCOCCOCCOCCCNC(=O)CCCC(=O)Oc1ccc(/C=C/C(=O)CC(=O)/C=C/c2ccc(O)c(OC)c2)cc1OC)C(CCC(=O)OC)C3C (stereo not drawn) [Ce6-diPEG-curcumin]	693	≥ 1000	almost no cytotoxicity	830	≥ 4	highest attenuation of MMP-2 expression			
34.9 ± 8.16		18.9 ± 3.04	C=Cc1c(C)c2cc3nc(c(CC(=O)OC)c4[nH]c(cc5nc(cc1[nH]2)C(C)=C5CC)c(C)c4C(=O)NCCCNC(=O)CCCC(=O)Oc1ccc(/C=C/C(=O)CC(=O)/C=C/c2ccc(O)c(OC)c2)cc1OC)C(CCC(=O)OC)C3C (stereo not drawn) [Ce6-propane-curcumin]	≥ 1000	≥ 1000	almost no cytotoxicity	2040			no phototoxicity	not affected	significant reductions
